Source: patent publication US20130269045A1, “HB-EGF DEFICIENT TRANSGENIC ANIMAL AND PRODUCTION METHOD THEREOF” (Nagasaki University, priority 2012, published 2013)

Experiments:
Type in all cases: in vivo
[1] = test system: HB-EGF deficient type TG mouse; assay: Marble-burying behavior test (obsessive-compulsive disorder related anxiety-like behavior); settings: 1 mg/kg i.p. once a day for 7 days; for number of the marbles that were buried: 25 marbles, 30 minutes, saline group: large, FIG. 17
Description: The marble-burying behavior test was carried out in accordance with the following processes. First, in a cage in which bedding was carpeted in around 5 cm depth, 25 blue-colored marbles with 17 mm were equally arranged, and the marble-burying behavior of each mouse were measured for 30 minutes. After a lapse of 30 minutes, when observed from straight above, the marbles those were buried two-thirds or more thereof with bedding were counted. Further, the acting amount of burying marbles was determined by SCANET. In the marble-burying behavior test, the more the number of marbles that buried after the test, the more the anxiety-like behavior enhanced.
(§1) As the therapeutic agent, three drugs of atomoxetine (1 mg/kg), nefiracetam (1 mg/kg), and SA4503 (1 mg/kg) were used independently to administer into the abdominal cavity once a day for 7 days in a row. As a control of the therapeutic agent, saline was administered into the abdominal cavity once a day for 7 days in a row.

[2] = test system: HB-EGF deficient type TG mouse; assay: Nest-building test (social behavior, interest and consideration for the surrounding environment); settings: 1 mg/kg i.p. once a day for 7 days; for state of the nest: collecting the cotton in one place and making the nest: FIG. 16(a); for amount of the cotton that was not used for the nest-building: Nestlet 2.5 g provided, FIG. 16(c); for rating on 5-point scale for the state of the nest: score criteria 1-5 (5 = almost perfect nest), FIG. 16(b)
Description: The nest-building test was carried out in accordance with the following processes. First, from one hour before the darkness period (19:00) of the light and darkness cycle (light period 8:00 to 20:00/darkness period 20:00 to 8:00), each mouse was reared alone in a new cage, and provided with Nestlet (2.5 g) that is a material for the nest-building. During the darkness period 20:00 to 8:00, each mouse acted freely, in the next morning the nest shape that was made by each mouse was scored on 5-point scale, and the unused Nestlet amount was measured. The score was determined by the following criteria.
1: 90% of the Nestlet was unused.
2: the Nestlet was slightly used, however, 50 to 90% of the Nestlet was left unused.
3: 50 to 90% of the Nestlet was torn off finely, and the shape was not maintained as the nest.
5: 90% or more of the Nestlet was torn off finely, and used as a material of the nest, the nest was dug into a crater-like shape, and the (almost) perfect nest that buries the whole body of the mouse when viewed from the side was confirmed.
as §1

[3] = test system: HB-EGF deficient type TG mouse; assay: Cylindrical platform test (impulsivity), ratio of mice remained on the platform; settings: for impulsivity (conclusion in words): HB-EGF deficient type TG mouse, 1 mg/kg i.p. once a day for 7 days; for ratio of the mice that were remained on the platform: HB-EGF deficient type mouse, 1 mg/kg into the abdominal cavity once a day for 7 days, column height 20 cm, diameter 10 cm, untreated TG only 20%, non-deficient 80% or more
Description: Further, the behavior of each mouse of the descending from the top of the platform to the floor was observed by classifying into the positive performing (=jumped down from the head) and the negative performing (=fall off from the tail).
as §1
In the mouse in which HB-EGF is not deficient, 80% or more of the mice were remained on the platform. On the other hand, in the HB-EGF deficient type mouse, only 20% of the mice were remained on the platform. However, in the case of administering atomoxetine to the HB-EGF deficient type mouse, 50% or more of the mice were remained on the platform. Further, in the case of administering nefiracetam to the HB-EGF deficient type mouse, 70% or more of the mice were remained on the platform.

Row | Structure (SMILES) | anxiety-like behavior related to obsessive-compulsive disorder (conclusion in words) [1] | number of the marbles that were buried [1] | social behavior, interest and consideration for the surrounding environment (conclusion in words) [2] | state of the nest: collecting the cotton in one place and making the nest [2] | amount of the cotton that was not used for the nest-building [2] | rating on 5-point scale for the state of the nest [2] | impulsivity (conclusion in words) [3] | ratio of the mice that were remained on the platform [3]
1 | Cc1cccc(C)c1NC(=O)CN1CCCC1=O [nefiracetam] | the anxiety-like behavior related to obsessive-compulsive disorder was decreased | small | improved the social behavior, and the interest and consideration for the surrounding environment | could collect the cotton in one place and could make the nest | around 0.1 g | 5 | the impulsivity was suppressed | ≥ 70%
2 | CNCC[C@@H](Oc1ccccc1C)c1ccccc1 [atomoxetine] |  | the same level as that of the HB-EGF deficient type TG mouse into which saline had been administered |  | could not collect the cotton in one place and could not make the nest |  | ≤ 3 | the impulsivity was suppressed | ≥ 50%
3 | COc1ccc(CCN2CCN(CCCc3ccccc3)CC2)cc1OC [SA4503] |  | the same level as that of the HB-EGF deficient type TG mouse into which saline had been administered | improved the social behavior, and the interest and consideration for the surrounding environment | could collect the cotton in one place and could make the nest | around 0.1 g | 5 |  | 
